Source: patent US20100184807A1, “Methods to inhibit tumor cell growth by using proton pump inhibitors” (Bio-Quant, Inc., priority 2008, published 2010)

Legend:
Assay in all cases: MTT tumor cell growth assay
Format in all cases: cell-based
[1] = system: HUT102 (lymphoma); settings: HUT102 cells, lansoprazole 1-100 μM, 48 hours
Experimental: (§1) In one study, adherent cells were plated approximately 16-24 hours before the day of the experiment in 180 μl growth media. On the day of the experiment, the plated adherent cells were analyzed and counted and suspension cells were plated in 180 μl growth media. 10× lansoprazole compounds and vehicle was prepared. The 10× lansoprazole compounds were prepared by diluting lansoprazole to final concentrations of 100 μM, 30 μM, 10 μM, 3 μM, and 1 μM. A vehicle was prepared by preparing a solution of PBS, equivalent to the volume used for 10 μM lansoprazole wherein the 1× solution constitutes ˜0.06% PBS. 10 μl of the various 10× lansoprazole solutions and the vehicle were added to the cells. The cells were incubated at 37° C., 5% CO2 for 48 hours. The media was then aspirated. The cell suspension was then spun at 1500 RPM for 10 minutes. The media was slowly removed. 200 μl of MTT solution was added to each well with a concentration of 0.863 mg/ml MTT in the growth media. The cells were incubated at 37° C., 5% CO2 for 4 hours and the medium is then aspirated. The plate containing the cell suspension was then spun at 1500 RPM for 10 minutes. The media was slowly removed using a multichannel pipettor. 100 μl of DMSO was then added to each well. The cells were incubated at 37° C., 5% CO2 for 5 minutes and the absorbance was obtained at 560 nm using a Dynex Opsys MR plate reader. The cells used for this procedure were the following cell lines: IGROV1 (ovarian cancer); OVCAR 8 (ovarian cancer); ES-2 (ovarian cancer); CAOV3 (ovarian cancer); OVCAR5 (ovarian cancer); SUDHL4 (lymphoma); RPMI8226 (myeloma); RPMI6666 (Hodgkin's lymphoma); NC37 (lymphoma); GDM-1 (leukemia); MC/CAR (prostate cancer); DU-145 (prostate cancer), J45-01 (leukemia), MOLT3 (leukemia), HUT78, J-gamma-1 (leukemia), MCF7 […], COL0205 (colon cancer), HL60 CLONE 15 (leukemia), T47D (breast cancer), P116 (intestinal cancer), KU812 (leukemia), SW620 (colon cancer), MK92-M1 (lymphoma), MV-4-11 (leukemia), HS578T (breast cancer), HT29 (colon cancer), HCT 116 (colon cancer), CAKI-1 (kidney cancer), A549 (lung cancer), H460 (lung cancer), A3 (colon cancer), MDA-MB231 […], MALME 3M (melanoma), RXF393 (kidney cancer), RS4.11 (leukemia), PC3 (prostate cancer), OVCAR3 (ovarian cancer), MDA-MB435 (melanoma), HUT102 (lymphoma), HL60 (leukemia), CCRF-CEM (leukemia), HUT78 (lymphoma), 786-O (kidney cancer), ACHN (kidney cancer), A498 (kidney cancer), H226 (lung cancer), H522 (lung cancer), HOP92 (lung cancer), SNB 19 (brain cancer), OVCAR4 (ovarian cancer), H9 (lymphoma), UO-31 (kidney cancer), HH (lymphoma), DAUDI (leukemia), LOXIMVI (melanoma), NAMALWA (lymphoma), EKVX (lung cancer), DOHH2 (lymphoma), SNB75 (brain cancer), SKMEL28 (melanoma), SKMEL5 (melanoma), SKMEL2 (melanoma), M14 (melanoma), UACC 257 (melanoma), H332M (lung cancer), KM12 (colon cancer), HCC2998 (colon cancer), G401 (kidney cancer), RS1184 (lymphoma), MC116 (leukemia), MOLT4 (leukemia), JM1 (liver cancer), HOP-62 (lung cancer), HCT-15 (colon cancer), SF-539 (brain cancer), SF295 (brain cancer), ST486 (lymphoma), U251 (brain cancer), and UACC-62 (melanoma).

[2] = system: UACC-62 (melanoma); settings: UACC-62 cells, lansoprazole 1-100 μM, 48 hours
Experimental: as §1

[3] = system: P116 (intestinal cancer); settings: P116 cells, lansoprazole 1-100 μM, 48 hours
Experimental: as §1

[4] = system: OVCAR8 (ovarian cancer); settings: OVCAR8 cells, lansoprazole 1-100 μM, 48 hours
Experimental: as §1

[5] = system: A549 (lung cancer); settings: A549 cells, lansoprazole 1-100 μM, 48 hours
Experimental: as §1

[6] = system: SW620 (colon cancer); settings: SW620 cells, lansoprazole 1-100 μM, 48 hours
Experimental: as §1

[7] = system: SKMEL5 (melanoma); settings: SKMEL5 cells, lansoprazole 1-100 μM, 48 hours
Experimental: as §1

[8] = system: HL60 (leukemia); settings: HL60 cells, lansoprazole 1-100 μM, 48 hours
Experimental: as §1

[9] = system: 786-O (kidney cancer); settings: 786-O cells, lansoprazole 1-100 μM, 48 hours
Experimental: as §1

[10] = system: CCRF-CEM (leukemia); settings: CCRF-CEM cells, lansoprazole 1-100 μM, 48 hours
Experimental: as §1

[11] = system: SKMEL2 (melanoma); settings: SKMEL2 cells, lansoprazole 1-100 μM, 48 hours
Experimental: as §1

[12] = system: DAUDI (leukemia); settings: DAUDI cells, lansoprazole 1-100 μM, 48 hours
Experimental: as §1

[13] = system: DOHH2 (lymphoma); settings: DOHH2 cells, lansoprazole 1-100 μM, 48 hours
Experimental: as §1

[14] = system: H460 (lung cancer); settings: H460 cells, lansoprazole 1-100 μM, 48 hours
Experimental: as §1

[15] = system: H522 (lung cancer); settings: H522 cells, lansoprazole 1-100 μM, 48 hours
Experimental: as §1

[16] = system: MOLT4 (leukemia); settings: MOLT4 cells, lansoprazole 1-100 μM, 48 hours
Experimental: as §1

Measured: tumor cell growth reduction

Cc1c(OCC(F)(F)F)ccnc1C[S+]([O-])c1nc2ccccc2[nH]1 (stereo not shown) [lansoprazole]
significant tumor cell growth reduction: all assays above
